For one experiment, the target named is T1, mGluR5 receptor (Sus scrofa, UniProt I3LUI7).
T1 construct: 450 μg of protein from brain homogenate is incubated; from tissue; host or cells: pig brain hemispheres without medulla, cerebellum and pons
Kind of experiment: Affinity for the mGluR5 receptor ([3H]-MPEP binding, pig brain homogenate). The settings on record: 10 μM compound, 15 nM [3H]-MPEP. Here is the method:
III. Method for Determining Affinity for the mGluR5 Receptor
Pig brain homogenate is produced by homogenisation (Polytron Pt 3000, Kinematica AG, 10,000 rpm (revolutions per minute) for 90 seconds) of pig brain hemispheres without medulla, cerebellum and pons in a buffer of pH 8.0 (30 mM Hepes, Sigma, order number H3375+1 tablet Complete Roche Diagnostics, order number 1836145 made up to 100 ml) in a ratio of 1:20 (brain weight/volume) and differential centrifugation at 900 g and 40,000 g. 450 μg of protein from brain homogenate is incubated in each case in 250 μl incubation batches in 96-well microtitre plates with 15 nM ^3[H]-MPEP (Tocris, order number R1212) and the compounds to be investigated (in each case 10 μM in the test) in the above-stated buffer at room temperature for 60 minutes.
The batches are then filtered with the assistance of a Brandel Cell Harvester (Brandel, Grade Robotic 9600) on Unifilter plates with glass filter mats (Perkin Elmer, order number 6005177) and then rewashed 3 times with buffer of the above-stated composition using 250 μl per sample. The filter plates are then dried for 60 minutes at 55° C. Then 30 μl of Ultima Gold scintillating material (Packard BioScience, order number 6013159) is added per well and after 3 hours the samples are measured using the B counter ([…], Perkin Elmer). Nonspecific binding is determined by the addition of 10 μM 2-methyl-6-(phenylethynyl)-pyridine (Tocris, order number 1212).

The target of a further experiment is T2, 5-HT transporter (Rattus norvegicus, UniProt P31652).
T2 construct: from tissue; host or cells: rat medulla and pons synaptosomes (P2 fraction)
T2 sequence (P31652 whole entry): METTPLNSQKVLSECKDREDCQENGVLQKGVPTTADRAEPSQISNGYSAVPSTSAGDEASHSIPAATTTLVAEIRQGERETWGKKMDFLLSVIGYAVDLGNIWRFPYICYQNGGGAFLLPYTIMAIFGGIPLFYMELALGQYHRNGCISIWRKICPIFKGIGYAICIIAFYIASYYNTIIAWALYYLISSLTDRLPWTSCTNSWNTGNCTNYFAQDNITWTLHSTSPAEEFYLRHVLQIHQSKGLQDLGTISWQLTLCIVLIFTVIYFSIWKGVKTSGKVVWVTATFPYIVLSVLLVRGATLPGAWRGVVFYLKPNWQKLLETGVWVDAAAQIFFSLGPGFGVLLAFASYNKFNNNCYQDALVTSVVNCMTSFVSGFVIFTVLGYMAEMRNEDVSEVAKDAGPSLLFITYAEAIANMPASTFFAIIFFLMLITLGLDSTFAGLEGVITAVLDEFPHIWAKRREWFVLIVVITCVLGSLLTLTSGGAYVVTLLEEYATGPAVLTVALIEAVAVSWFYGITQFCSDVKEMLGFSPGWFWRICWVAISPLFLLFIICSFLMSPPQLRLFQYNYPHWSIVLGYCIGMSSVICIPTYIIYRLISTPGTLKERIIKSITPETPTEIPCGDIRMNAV
As to the kind of experiment: 5-HT uptake inhibition in rat brain synaptosomes (medulla and pons). The experiment is classed as biochemical. A digest of the protocol:
(§1)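 Freshly isolated P2 synaptosomes from rat hypothalamus (noradrenalin) or medulla and pons (5-HT) incubated at room temperature under O2 with [3H]-NA for 7.5 min or [3H]-5-HT for 5 min. Uptake measured by filtration and scintillation counting.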

The next experiment addresses T3, NA transporter (Rattus norvegicus, UniProt Q63380).
T3 construct: from tissue; host or cells: rat hypothalamus synaptosomes (P2 fraction)
As to the kind of experiment: Noradrenalin uptake inhibition in rat brain synaptosomes (hypothalamus). The experiment is classed as biochemical. A digest of the protocol: as §1

T3 sequence (Q63380 1-617): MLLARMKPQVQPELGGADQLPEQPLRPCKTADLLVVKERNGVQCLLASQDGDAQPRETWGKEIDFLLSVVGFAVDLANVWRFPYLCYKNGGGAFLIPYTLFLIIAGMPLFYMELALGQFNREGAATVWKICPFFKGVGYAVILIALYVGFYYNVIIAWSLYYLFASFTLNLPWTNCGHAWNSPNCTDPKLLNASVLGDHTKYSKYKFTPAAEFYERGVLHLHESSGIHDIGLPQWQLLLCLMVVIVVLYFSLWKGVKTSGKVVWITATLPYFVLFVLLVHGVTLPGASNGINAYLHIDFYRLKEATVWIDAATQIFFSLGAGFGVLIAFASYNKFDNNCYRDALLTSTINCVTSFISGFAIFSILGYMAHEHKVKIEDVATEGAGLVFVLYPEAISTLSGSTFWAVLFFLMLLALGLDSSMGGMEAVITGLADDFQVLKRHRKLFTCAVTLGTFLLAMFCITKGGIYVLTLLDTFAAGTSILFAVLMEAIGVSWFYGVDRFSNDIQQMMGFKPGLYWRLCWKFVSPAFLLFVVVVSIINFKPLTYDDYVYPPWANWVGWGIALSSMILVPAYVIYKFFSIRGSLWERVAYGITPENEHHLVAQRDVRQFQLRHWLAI
T1 sequence (I3LUI7 19-1212): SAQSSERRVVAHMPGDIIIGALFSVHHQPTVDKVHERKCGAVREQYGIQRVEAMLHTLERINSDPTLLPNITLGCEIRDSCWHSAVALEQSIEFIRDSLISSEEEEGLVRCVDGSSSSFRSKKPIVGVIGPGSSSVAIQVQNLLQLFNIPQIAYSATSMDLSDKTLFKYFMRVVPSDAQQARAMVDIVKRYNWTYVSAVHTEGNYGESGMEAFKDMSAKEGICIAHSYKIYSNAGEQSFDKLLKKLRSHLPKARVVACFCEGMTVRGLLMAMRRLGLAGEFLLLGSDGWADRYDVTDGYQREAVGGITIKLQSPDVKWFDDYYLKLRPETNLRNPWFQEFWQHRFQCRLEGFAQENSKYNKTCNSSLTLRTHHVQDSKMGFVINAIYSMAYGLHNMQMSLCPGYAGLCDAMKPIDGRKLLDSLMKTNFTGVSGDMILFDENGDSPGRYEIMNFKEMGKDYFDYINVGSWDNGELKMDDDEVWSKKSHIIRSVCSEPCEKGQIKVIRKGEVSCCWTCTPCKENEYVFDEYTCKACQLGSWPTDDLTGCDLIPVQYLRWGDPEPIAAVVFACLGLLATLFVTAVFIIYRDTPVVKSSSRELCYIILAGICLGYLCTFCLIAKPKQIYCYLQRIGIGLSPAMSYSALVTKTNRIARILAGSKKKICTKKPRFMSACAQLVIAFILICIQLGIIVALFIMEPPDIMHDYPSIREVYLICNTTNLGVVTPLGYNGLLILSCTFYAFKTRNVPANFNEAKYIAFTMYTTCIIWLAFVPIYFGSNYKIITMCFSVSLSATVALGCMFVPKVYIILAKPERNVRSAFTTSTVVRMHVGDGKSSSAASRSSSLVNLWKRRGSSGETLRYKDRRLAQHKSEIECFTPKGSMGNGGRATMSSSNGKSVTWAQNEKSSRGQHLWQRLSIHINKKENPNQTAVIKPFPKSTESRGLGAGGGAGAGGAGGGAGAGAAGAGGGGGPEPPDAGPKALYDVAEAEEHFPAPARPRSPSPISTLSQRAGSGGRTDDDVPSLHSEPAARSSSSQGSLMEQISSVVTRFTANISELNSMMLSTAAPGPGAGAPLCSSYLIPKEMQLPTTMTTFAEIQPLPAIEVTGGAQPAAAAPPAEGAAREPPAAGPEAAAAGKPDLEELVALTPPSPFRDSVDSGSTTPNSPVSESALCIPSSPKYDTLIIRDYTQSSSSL

Take `Cc1ccc(C(=O)Nc2ncc3c(n2)CCN(S(=O)(=O)c2cc(F)ccc2C)C3)cc1` [Example 107, N-[6-(5-fluoro-2-methyl-benzenesulfonyl)-5,6,7,8-tetrahydro-pyrido[4,3-d]pyrimidin-2-yl]-4-methyl-benzamide]: the results for the inhibition at 10 µM at mGluR5 receptor and at NA transporter were 38.2% and 39%, respectively. Moreover, the inhibition at 1 µM against 5-HT transporter came out at 36%.
Turning to `CCCCC(C)CCC(=O)N1CCc2nc(NC(=O)c3cccc4ccccc34)ncc2C1` (stereo not shown) [Example 193, naphthalene-1-carboxylic acid [6-(4-methyl-octanoyl)-5,6,7,8-tetrahydro-pyrido[4,3-d]pyrimidin-2-yl]-amide], the inhibition at 10 µM on mGluR5 receptor was 51.8%; on NA transporter it was 43%. Besides, testing at 1 µM against 5-HT transporter gave an inhibition of 38%.
Take `Cc1cc(C(=O)NC2CCc3nc(NC(=O)c4cccs4)ncc3C2)ccc1Br` (stereo not shown) [Example 115, thiophene-2-carboxylic acid [6-(4-bromo-3-methyl-benzoylamino)-5,6,7,8-tetrahydro-quinazolin-2-yl]-amide]: the inhibition at 10 µM was determined as 34.3% on mGluR5 receptor and 49% on NA transporter. The inhibition at 1 µM at 5-HT transporter was determined as 56%.
`Cc1ccc(C(=O)Nc2ncc3c(n2)CCN(C(=O)COc2cccc(Cl)c2)C3)cc1` [Example 189, N-{6-[2-(3-chloro-phenoxy)-acetyl]-5,6,7,8-tetrahydro-pyrido[4,3-d]pyrimidin-2-yl}-4-methyl-benzamide]: the inhibition at 10 µM on mGluR5 receptor came out at 39.5%; against NA transporter it was 53%. At 5-HT transporter, this compound had an inhibition at 1 µM of 46%.
For the compound `O=C(Nc1ncc2c(n1)CCN(C(=O)c1ccc(Cl)c(Cl)c1)C2)c1ccccc1F` [Example 113, N-[6-(3,4-dichloro-benzoyl)-5,6,7,8-tetrahydro-pyrido[4,3-d]pyrimidin-2-yl]-2-fluoro-benzamide], the inhibition at 10 µM at mGluR5 receptor was found to be 31.3%; against NA transporter, 67%. The compound further gave an inhibition at 1 µM on 5-HT transporter of 45%.
For the compound `Cc1ccc(C(=O)N2CCc3nc(NC(=O)c4cccc5ccccc45)ncc3C2)cc1F` [Example 154, naphthalene-1-carboxylic acid [6-(3-fluoro-4-methyl-benzoyl)-5,6,7,8-tetrahydro-pyrido[4,3-d]pyrimidin-2-yl]-amide], the inhibition at 10 µM on mGluR5 receptor was 30.7%; against NA transporter, 50%.
For the compound `CCc1ccc(C(=O)Nc2ncc3c(n2)CCN(S(=O)(=O)c2ccc(OC)cc2)C3)cc1` [Example 172, 4-ethyl-N-[6-(4-methoxy-benzenesulfonyl)-5,6,7,8-tetrahydro-pyrido[4,3-d]pyrimidin-2-yl]-benzamide], the inhibition at 10 µM on mGluR5 receptor is 70.1%; against NA transporter, 85%. Besides, at 5-HT transporter, 1 µM produced 57% inhibition.
With `CCOc1ccccc1C(=O)Nc1ncc2c(n1)CCN(S(=O)(=O)c1ccccc1C(=O)OC)C2` [Example 82, 2-[2-(2-ethoxy-benzoylamino)-7,8-dihydro-5H-pyrido[4,3-d]pyrimidine-6-sulfonyl]-benzoic acid methyl ester], the results for the inhibition at 10 µM on mGluR5 receptor and against NA transporter were 36.3% and 32%, respectively.

Source of the values: patent publication US20090176811A1, “Substituted 5,6,7,8-Tetrahydro-pyrido[4,3-d]pyrimidine-2-yl Compounds and 5,6,7,8-Tetrahydro-quinazoline-2-yl Compounds” (GRUENENTHAL GmbH, priority 2004, published 2009).
